Results taken from patent US12030883B2, “Hetero-tricyclic compounds as inhibitors of KRAS” (Incyte Corporation, priority 2021, dated 2024).

What was measured:
KRAS G12D = KRAS G12D (Homo sapiens, UniProt P01116, G12D); assay: GDP-GTP exchange assay, KRAS G12D (bodipy-GDP/GppNHp, SOS1); format: biochemical; conditions: bodipy-loaded KRAS G12D 2.5 nM, 4 hours pre-incubation with inhibitor, SOS1 150 nM, GppNHp 500 uM; read-out: G12D_exchange (KRAS_G12D exchange assay IC50)
Experimental: (§1) The inhibitor potency of the exemplified compounds was determined in a fluorescence based guanine nucleotide exchange assay, which measures the exchange of bodipy-GDP (fluorescently labeled GDP) for GppNHp (Non-hydrolyzable GTP analog) to generate the active state of KRAS in the presence of SOS1 (guanine nucleotide exchange factor). Inhibitors were serially diluted in DMSO and a volume of 0.1 μL was transferred to the wells of a black low volume 384-well plate. Five μL/well volume of bodipy-loaded KRAS G12D or G12V diluted to a final concentration of 2.5 nM in assay buffer (25 mM Hepes pH 7.5, 50 mM NaCl, 10 mM MgCl2 and 0.01% Brij-35) was added to the plate and pre-incubated with inhibitor for 4 hours (G12D) or 3 hours (G12V) at ambient temperature. A cyclic peptide described to selectively bind G12D mutant (Sakamoto et al., BBRC 484.3 (2017), 605-611) or internal compounds with confirmed binding were used as positive controls in the assay plates. The exchange was initiated by the addition of a 5 μL/well volume containing 1 mM GppNHp and 300 nM SOS1 in assay buffer. The 10 μL/well reaction concentration of the bodipy-loaded KRAS G12D or G12V, GppNHp, and SOS1 were 2.5 nM, 500 uM, and 150 nM, respectively.
(§2) Either GraphPad prism or XLfit was used to analyze the data. The IC50 values were derived by fitting the data to a four parameter logistic equation producing a sigmoidal dose-response curve with a variable Hill coefficient. Prism equation: Y=Bottom+(Top−Bottom)/(1+10^((LogIC50-X)*Hill slope)); XLfit equation: Y=(A+((B−A)/(1+((X/C)^D)))) where X is the logarithm of inhibitor concentration and Y is the response.

KRAS G12V = KRAS G12V (Homo sapiens, UniProt P01116, G12V); assay: GDP-GTP exchange assay, KRAS G12V (bodipy-GDP/GppNHp, SOS1); format: biochemical; conditions: bodipy-loaded KRAS G12V 2.5 nM, 3 hours pre-incubation with inhibitor, SOS1 150 nM, GppNHp 500 uM; read-out: G12V_exchange (KRAS_G12V exchange assay IC50)
Experimental: as §1, §2

Chain of KRAS G12V (P01116 1-188 isoform P01116-2 G12V): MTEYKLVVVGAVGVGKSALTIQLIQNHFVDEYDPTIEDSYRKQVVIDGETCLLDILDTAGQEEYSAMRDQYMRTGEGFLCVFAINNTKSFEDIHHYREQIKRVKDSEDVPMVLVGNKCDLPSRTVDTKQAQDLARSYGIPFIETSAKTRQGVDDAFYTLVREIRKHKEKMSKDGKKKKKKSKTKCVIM
Chain of KRAS G12D (P01116 1-188 isoform P01116-2 G12D): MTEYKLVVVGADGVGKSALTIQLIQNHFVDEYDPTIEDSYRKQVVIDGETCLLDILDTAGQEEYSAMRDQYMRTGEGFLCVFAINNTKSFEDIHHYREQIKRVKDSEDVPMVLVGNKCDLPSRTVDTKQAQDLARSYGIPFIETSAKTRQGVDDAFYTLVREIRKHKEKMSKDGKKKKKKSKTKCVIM

| SMILES | IC50 (KRAS G12D) | IC50 (KRAS G12V) |
| --- | --- | --- |
| N#CCCc1cc2c3c(c(Cc4ccccc4)nc2c(F)c1-c1cc(O)cc2ccccc12)NC(=O)CN3C1C2CNC1C2 (single isomer, unassigned) [Example 8b, 3-(5-Benzyl-1-((endo)-2-azabicyclo[2.1.1]hexan-5-yl)-7-fluoro-8-(3-hydroxynaphthalen-1-yl)-3-oxo-1,2,3,4-tetrahydropyrazino[2,3-c]quinolin-9-yl)propanenitrile] | 5000 to 10000 nM | 5000 to 10000 nM |
| C[C@H](Oc1nc2c(F)c(-c3cc(O)cc4ccc(F)cc34)c(CCC#N)cc2c2c1NC(=O)CN2C1C2CNC1C2)[C@@H]1CCCN1C (single isomer, unassigned) [Example 4a] | 1000 to 5000 nM | 1000 to 5000 nM |
| C[C@@H](CN(C)C)Oc1nc2c(F)c(-c3cc(O)cc4ccccc34)c(CCC#N)cc2c2c1NC(=O)CN2C1C2CNC1C2 (single isomer, unassigned) [Example 11d] | 100 to 1000 nM | 100 to 1000 nM |
| N#CCCc1cc2c3c(c(-c4ccc5cccnc5c4)nc2c(F)c1-c1cc(O)cc2ccccc12)NC(=O)CN3C1C2CNC1C2 (single isomer, unassigned) [Example 6b, 3-(1-((endo)-2-Azabicyclo[2.1.1]hexan-5-yl)-7-fluoro-8-(3-hydroxynaphthalen-1-yl)-3-oxo-5-(quinolin-7-yl)-1,2,3,4-tetrahydropyrazino[2,3-c]quinolin-9-yl)propanenitrile] | 1000 to 5000 nM | 1000 to 5000 nM |
| C[C@@H](CN(C)C)Oc1nc2c(F)c(-c3cc(O)cc4ccccc34)c(CCC#N)cc2c2c1NC(=O)CN2C1C2CNC1C2 (single isomer, unassigned) [Example 11a] | 5000 to 10000 nM | 5000 to 10000 nM |
| CNC(=O)c1ccc(-c2nc3c(F)c(-c4cc(O)cc5ccccc45)c(CCC#N)cc3c3c2NC(=O)CN3C2C3CNC2C3)cn1 (single isomer, unassigned) [Example 5b, 5-(1-((endo)-2-Azabicyclo[2.1.1]hexan-5-yl)-9-(2-cyanoethyl)-7-fluoro-8-(3-hydroxynaphthalen-1-yl)-3-oxo-1,2,3,4-tetrahydropyrazino[2,3-c]quinolin-5-yl)-N-methylpicolinamide] | 1000 to 5000 nM | 1000 to 5000 nM |
| N#CCCc1cc2c3c(c(OC[C@@]45CCCN4C[C@H](F)C5)nc2c(F)c1-c1cc(O)cc2ccccc12)NC(=O)CN3C1C2CNC1C2 (single isomer, unassigned) [Example 10c] | 100 to 1000 nM | 100 to 1000 nM |

The next lines start with the values.

| IC50 (KRAS G12D) | IC50 (KRAS G12V) | SMILES |
| --- | --- | --- |
| ≤ 100 nM | 100 to 1000 nM | N#CCCc1cc2c3c(cnc2c(F)c1-c1cc(O)cc2ccccc12)N(CC(N)=O)C(=O)CN3C1C2CNC1C2 (single isomer, unassigned) [Example 19a, 2-(1-((endo)-2-Azabicyclo[2.1.1]hexan-5-yl)-9-(2-cyanoethyl)-7-fluoro-8-(3-hydroxynaphthalen-1-yl)-3-oxo-2,3-dihydropyrazino[2,3-c]quinolin-4(1H)-yl)acetamide] |
| 1000 to 5000 nM | 5000 to 10000 nM | CC1Cc2c(OC[C@@H]3CCCN3C)nc3c(F)c(-c4cc(O)cc5ccccc45)c(CCC#N)cc3c2N(C2C3CNC2C3)C1 (single isomer, unassigned) [Example 14c] |
| 100 to 1000 nM | 100 to 1000 nM | CN(C)C1CN(c2nc3c(F)c(-c4cc(O)cc5ccccc45)c(CCC#N)cc3c3c2NC(=O)CN3C2C3CNC2C3)C1 (single isomer, unassigned) [Example 13b, 3-(1-((endo)-2-Azabicyclo[2.1.1]hexan-5-yl)-5-(3-(dimethylamino)azetidin-1-yl)-7-fluoro-8-(3-hydroxynaphthalen-1-yl)-3-oxo-1,2,3,4-tetrahydropyrazino[2,3-c]quinolin-9-yl)propanenitrile] |
| ≤ 100 nM | ≤ 100 nM | Cc1cc2c(nc(O[C@@H](C)[C@@H]3CCCN3C)c3c(=O)c(Nc4cnn(C)c4)cn([C@H]4[C@H]5CN[C@@H]4C5)c32)c(F)c1-c1cccc2c1C(C#N)CCC2 (single isomer, unassigned) [Example 26a] |
| 1000 to 5000 nM | 1000 to 5000 nM | CC1Cc2c(OC[C@@H]3CCCN3C)nc3c(F)c(-c4cc(O)cc5ccccc45)c(CCC#N)cc3c2N(C2C3CNC2C3)C1 (single isomer, unassigned) [Example 14d] |
